Numbers after ± are expanded uncertainties.
Experiments:
[1] = 101.33 kPa, Liquid
[2] = xn = mol fraction of the nth substance listed; conditions: 101 kPa, Liquid

CN1CCN(C)C1=O [1,3-dimethyl-2-imidazolidinone]
[1]
Conditions	mass density [kg/m3]
283.15 K	1064.86 ± 0.12
298.15 K	1051.59 ± 0.11
313.15 K	1038.38 ± 0.1

CN1CCN(C)C1=O [1,3-dimethyl-2-imidazolidinone] + CCCCCCCCO
mass density [kg/m3], [2]
Conditions	x1 = 0.09996	x1 = 0.2	x1 = 0.3002	x1 = 0.4001	x1 = 0.5	x1 = 0.599	x1 = 0.7002	x1 = 0.7996	x1 = 0.8999
283.15 K	848.3 ± 0.39	865.7 ± 0.36	884.37 ± 0.33	904.35 ± 0.3	925.89 ± 0.28	948.94 ± 0.24	974.48 ± 0.19	1001.78 ± 0.15	1031.95 ± 0.18
298.15 K	837.74 ± 0.41	854.88 ± 0.38	873.28 ± 0.35	893.01 ± 0.32	914.29 ± 0.29	937.08 ± 0.25	962.3 ± 0.21	989.29 ± 0.16	1019.12 ± 0.16
313.15 K	827.05 ± 0.42	843.97 ± 0.39	862.14 ± 0.37	881.63 ± 0.34	902.66 ± 0.31	925.21 ± 0.27	950.12 ± 0.22	976.81 ± 0.18	1006.31 ± 0.14

CN1CCN(C)C1=O [1,3-dimethyl-2-imidazolidinone] + CCCCCCCO
mass density [kg/m3], [2]
Conditions	x1 = 0.09996	x1 = 0.1999	x1 = 0.3001	x1 = 0.4	x1 = 0.5	x1 = 0.6001	x1 = 0.7	x1 = 0.8001	x1 = 0.8992
283.15 K	847.64 ± 0.39	866.92 ± 0.36	887.24 ± 0.33	908.58 ± 0.3	931.08 ± 0.27	954.87 ± 0.23	979.95 ± 0.18	1006.61 ± 0.15	1034.61 ± 0.19
298.15 K	836.89 ± 0.41	855.89 ± 0.38	875.96 ± 0.35	897.05 ± 0.32	919.28 ± 0.29	942.82 ± 0.25	967.68 ± 0.2	994.04 ± 0.15	1021.77 ± 0.17
313.15 K	826.03 ± 0.43	844.8 ± 0.39	864.62 ± 0.36	885.45 ± 0.33	907.49 ± 0.31	930.78 ± 0.26	955.41 ± 0.22	981.47 ± 0.17	1009.02 ± 0.15

CN1CCN(C)C1=O [1,3-dimethyl-2-imidazolidinone] + CCCCCCO
mass density [kg/m3], [2]
Conditions	x1 = 0.1	x1 = 0.2	x1 = 0.3	x1 = 0.4001	x1 = 0.5	x1 = 0.6001	x1 = 0.7002	x1 = 0.7998	x1 = 0.9001
283.15 K	847.11 ± 0.39	868.74 ± 0.36	890.96 ± 0.32	913.77 ± 0.29	937.21 ± 0.27	961.32 ± 0.22	986.12 ± 0.17	1011.48 ± 0.16	1037.74 ± 0.19
298.15 K	836.15 ± 0.41	857.49 ± 0.38	879.43 ± 0.34	901.99 ± 0.31	925.23 ± 0.28	949.12 ± 0.24	973.62 ± 0.19	998.72 ± 0.14	1024.71 ± 0.17
313.15 K	825.02 ± 0.43	846.12 ± 0.39	867.81 ± 0.36	890.13 ± 0.33	913.07 ± 0.3	936.71 ± 0.25	961.04 ± 0.21	985.96 ± 0.16	1011.88 ± 0.15

CN1CCN(C)C1=O [1,3-dimethyl-2-imidazolidinone] + CCCCCO
mass density [kg/m3], [2]
Conditions	x1 = 0.1	x1 = 0.2	x1 = 0.3	x1 = 0.4001	x1 = 0.5001	x1 = 0.6001	x1 = 0.7	x1 = 0.8002	x1 = 0.9
283.15 K	846.41 ± 0.38	870.95 ± 0.35	895.43 ± 0.31	919.88 ± 0.28	944.23 ± 0.25	968.5 ± 0.21	992.7 ± 0.16	1016.92 ± 0.16	1040.93 ± 0.19
298.15 K	835.16 ± 0.4	859.39 ± 0.36	883.62 ± 0.33	907.84 ± 0.3	931.97 ± 0.27	956.02 ± 0.22	980.01 ± 0.18	1004.03 ± 0.14	1027.87 ± 0.17
313.15 K	823.75 ± 0.42	847.72 ± 0.38	871.72 ± 0.35	895.74 ± 0.31	919.68 ± 0.29	943.56 ± 0.24	967.36 ± 0.2	991.25 ± 0.15	1014.87 ± 0.15

CN1CCN(C)C1=O [1,3-dimethyl-2-imidazolidinone] + CCCCO
mass density [kg/m3], [2]
Conditions	x1 = 0.09992	x1 = 0.2	x1 = 0.3	x1 = 0.4002	x1 = 0.5	x1 = 0.6	x1 = 0.7002	x1 = 0.7999	x1 = 0.9001
283.15 K	846.49 ± 0.38	874.68 ± 0.34	901.72 ± 0.3	927.79 ± 0.27	952.85 ± 0.24	976.95 ± 0.19	1000.25 ± 0.15	1022.61 ± 0.17	1044.18 ± 0.2
298.15 K	834.78 ± 0.39	862.67 ± 0.35	889.49 ± 0.32	915.33 ± 0.28	940.22 ± 0.26	964.19 ± 0.21	987.34 ± 0.16	1009.57 ± 0.15	1031.03 ± 0.18
313.15 K	822.87 ± 0.41	850.54 ± 0.37	877.11 ± 0.33	902.78 ± 0.3	927.48 ± 0.27	951.32 ± 0.23	974.35 ± 0.18	996.45 ± 0.14	1017.84 ± 0.16

CN1CCN(C)C1=O [1,3-dimethyl-2-imidazolidinone] + CCCO
mass density [kg/m3], [2]
Conditions	x1 = 0.09998	x1 = 0.2	x1 = 0.2999	x1 = 0.4001	x1 = 0.4998	x1 = 0.6001	x1 = 0.7	x1 = 0.7999	x1 = 0.9
283.15 K	847.83 ± 0.37	880.77 ± 0.32	910.83 ± 0.28	938.4 ± 0.25	963.7 ± 0.22	987.2 ± 0.17	1008.86 ± 0.15	1028.91 ± 0.18	1047.62 ± 0.2
298.15 K	835.55 ± 0.38	868.25 ± 0.34	898.06 ± 0.3	925.54 ± 0.26	950.74 ± 0.24	974.16 ± 0.19	995.74 ± 0.15	1015.73 ± 0.16	1034.43 ± 0.18
313.15 K	823.05 ± 0.4	855.56 ± 0.36	885.22 ± 0.32	912.63 ± 0.28	937.7 ± 0.25	961.08 ± 0.21	982.62 ± 0.17	1002.67 ± 0.14	1021.31 ± 0.16

CN1CCN(C)C1=O [1,3-dimethyl-2-imidazolidinone] + CCO
mass density [kg/m3], [2]
Conditions	x1 = 0.09998	x1 = 0.2	x1 = 0.3001	x1 = 0.3999	x1 = 0.4996	x1 = 0.6002	x1 = 0.6999	x1 = 0.8	x1 = 0.8994
283.15 K	846.13 ± 0.37	886.41 ± 0.31	920.6 ± 0.27	949.96 ± 0.23	975.63 ± 0.2	998.13 ± 0.15	1017.79 ± 0.16	1035.31 ± 0.19	1050.79 ± 0.21
298.15 K	833.1 ± 0.39	873.26 ± 0.33	907.41 ± 0.29	936.72 ± 0.25	962.36 ± 0.22	984.83 ± 0.17	1004.56 ± 0.15	1022.19 ± 0.17	1037.59 ± 0.19
313.15 K	819.85 ± 0.41	859.85 ± 0.35	893.96 ± 0.31	923.29 ± 0.27	948.92 ± 0.24	971.48 ± 0.19	991.29 ± 0.15	1008.94 ± 0.15	1024.41 ± 0.17

CN1CCN(C)C1=O [1,3-dimethyl-2-imidazolidinone] + CO
mass density [kg/m3], [2]
Conditions	x1 = 0.09987	x1 = 0.1999	x1 = 0.2999	x1 = 0.4	x1 = 0.4985	x1 = 0.6002	x1 = 0.7001	x1 = 0.8002	x1 = 0.9003
283.15 K	866.6 ± 0.34	914.65 ± 0.27	950.88 ± 0.22	978.91 ± 0.19	1000.83 ± 0.16	1019.06 ± 0.17	1033.62 ± 0.18	1045.88 ± 0.2	1056.16 ± 0.22
298.15 K	852.53 ± 0.36	900.56 ± 0.29	936.99 ± 0.24	965.04 ± 0.21	987.09 ± 0.18	1005.48 ± 0.15	1020.04 ± 0.16	1032.47 ± 0.18	1042.89 ± 0.19
313.15 K	838.25 ± 0.38	886.37 ± 0.32	922.85 ± 0.27	951.05 ± 0.23	973.2 ± 0.2	991.72 ± 0.16	1006.43 ± 0.14	1019.04 ± 0.16	1029.49 ± 0.17

CCCCO [butan-1-ol]
[1]
Conditions	mass density [kg/m3]
283.15 K	817.18 ± 0.22
298.15 K	805.79 ± 0.23
313.15 K	794.18 ± 0.24

CCO [ethanol]
[1]
Conditions	mass density [kg/m3]
283.15 K	797.88 ± 0.22
298.15 K	785.13 ± 0.24
313.15 K	772.05 ± 0.25

CCCCCCCO [heptan-1-ol]
[1]
Conditions	mass density [kg/m3]
283.15 K	829.27 ± 0.43
298.15 K	818.78 ± 0.45
313.15 K	808.11 ± 0.46

CCCCCCO [hexan-1-ol]
[1]
Conditions	mass density [kg/m3]
283.15 K	826.03 ± 0.43
298.15 K	815.34 ± 0.45
313.15 K	804.46 ± 0.47

CO [methanol]
[1]
Conditions	mass density [kg/m3]
283.15 K	800.62 ± 0.22
298.15 K	786.56 ± 0.23
313.15 K	772.32 ± 0.25

CCCCCCCCO [octan-1-ol]
[1]
Conditions	mass density [kg/m3]
283.15 K	832.06 ± 0.43
298.15 K	821.72 ± 0.44
313.15 K	811.21 ± 0.46

CCCCCO [pentan-1-ol]
[1]
Conditions	mass density [kg/m3]
283.15 K	821.81 ± 0.23
298.15 K	810.88 ± 0.23
313.15 K	799.71 ± 0.24

CCCO [propan-1-ol]
[1]
Conditions	mass density [kg/m3]
283.15 K	811.54 ± 0.21
298.15 K	799.59 ± 0.22
313.15 K	787.36 ± 0.23

Reference: the NIST ThermoML archive (doi:10.1016/j.jct.2006.09.017)
